Experiments:
Format in all cases: in vivo
[1] = system: Puccinia recondita; assay: Curative activity against brown rust of wheat caused by Puccinia recondita; details: 168 h, single active compound, sprayed the day after inoculation, 7 days, control 90% infection, read-out: Observed activity (% infection)
Protocol: (§1) The active compounds, separately or jointly, were prepared as a stock solution comprising 25 mg of active compound which was made up to 10 ml using a mixture of acetone and/or dimethyl sulfoxide and the emulsifier Uniperol® EL (wetting agent having an emulsifying and dispersing action based on ethoxylated alkylphenols) in a ratio by volume of solvent/emulsifier of 99:1. The mixture was then made up to 100 ml with water. This stock solution was diluted with the solvent/emulsifier/water mixture described to give the concentration of active compound stated below.
(§2) Alternatively, the active compounds epoxiconazole and pyraclostrobin were used as a commercial formulation and diluted with water to the stated active compound concentrations.
(§3) The visually determined percentages of infected leaf areas were converted into efficacies in % of the untreated control.
(§4) The efficacy (E) is calculated as follows using Abbot's formula: […]
(§5) The expected efficacies of active compound mixtures were determined using Colby's formula [R. S. Colby, “Calculating synergistic and antagonistic responses of herbicide combinations”, Weeds 15, 20-22 (1967)] and compared with the observed efficacies. […]
Leaves of wheat seedlings of the cultivar “Kanzler” cultivated in pots were inoculated with a spore suspension of brown rust (Puccinia recondita). […] The extent of the rust fungus development on the leaves was then determined.

[2] = system: Puccinia recondita; assay: Protective activity against Puccinia recondita on wheat (brown rust of wheat); details: single active compound, control 90% infection, read-out: Observed activity (% infection)
Protocol: as §1, §2, §3, §4
(§6) α corresponds to the fungicidal infection of the treated plants in % and β corresponds to the fungicidal infection of the untreated (control) plants in %
(§7) An efficacy of 0 means that the infection level of the treated plants corresponds to that of the untreated control plants; an efficacy of 100 means that the treated plants were not infected.
(§8) The expected efficacies of active compound mixtures were determined using Colby's formula [R. S. Colby, “Calculating synergistic and antagonistic responses of herbicide combinations”, Weeds 15, 20-22 (1967)] and compared with the observed efficacies.
(§9) E=x+y−x·y/100 Colby's formula • E expected efficacy, expressed in % of the untreated control, when using the mixture of the active compounds A and B at the concentrations a and b; • x efficacy, expressed in % of the untreated control, when using the active compound A at the concentration a; • y efficacy, expressed in % of the untreated control, when using the active compound B at the concentration b;
Leaves of potted wheat seedlings of the cultivar “Kanzler” were sprayed to runoff point with an aqueous suspension having the concentration of active compound stated below. The next day the treated plants were inoculated with a spore suspension of brown rust of wheat (Puccinia recondita). The plants were then placed in a chamber at high atmospheric humidity (90 to 95%) at 20 to 22° C. for 24 hours. During this time, the spores germinated and the germ tubes penetrated into the leaf tissue. The next day, the test plants were returned to the greenhouse and cultivated at temperatures between 20 and 22° C. and 65 to 70% relative atmospheric humidity for a further 7 days. The extent of the rust fungus development on the leaves was then determined visually.

[3] = system: Alternaria solani; assay: Activity against early blight on tomatoes caused by Alternaria solani (protective spray, potted tomato plants); details: 120 h, single active compound, efficacy in % of untreated control (Abbot), evaluated after 5 days, control 90% infection, read-out: Observed activity (% infection); for inhibition at 4 µg/mL: 4 mg/l; for inhibition at 1 µg/mL: 1 mg/l
Protocol: as §1, §2, §3, §4, §6, §7, §8, §9
Leaves of potted tomato plants were sprayed to runoff point with an aqueous suspension having the concentration of active compounds stated below. The next day, the leaves were infected with an aqueous spore suspension of Alternaria solani in a 2% biomalt solution having a density of 0.17×10^6 spores/ml. The plants were then placed in a water vapor-saturated chamber at temperatures between 20 and 22° C. After 5 days, the disease on the untreated, but infected control plants had developed to such an extent that the infection could be determined visually in %.

[4] = system: Botrytis cinerea; assay: Activity against gray mold on bell pepper leaves caused by Botrytis cinerea, 1 day protective application; details: 120 h, single active compound, 1 mg/l, efficacy in % of untreated control, after 5 days, control 100% infection, read-out: Observed activity (% infection)
Protocol: as §1, with “below. […]” for “below.”
as §3, §4, §5
Bell pepper seedlings of the cultivar “Neusiedler Ideal Elite” were, after 2-3 leaves were well developed, sprayed to runoff point with an aqueous suspension in the active compound concentration stated below. […] After 5 days, the extent of the fungal infection on the leaves could be determined visually in %.

[5] = system: Pyrenophora [syn. Drechslera] teres; assay: Activity against net blotch of barley caused by Pyrenophora teres, 1 day protective application; details: 144 h, single active compound, after 6 days, control 90% infection, read-out: Observed activity (% infection); for inhibition at 16 µg/mL: 16 mg/l
Protocol: as §1, §2, §3, §4, §6, §7, §5
Leaves of potted barley seedlings were sprayed to runoff point with an aqueous suspension having the concentration of active compound stated below. […] After 6 days, the extent of the development of the disease was determined visually in % infection of the entire leaf area.

Question: Which results are given for `Fc1ccc([C@]2(Cn3cncn3)O[C@H]2c2ccccc2Cl)cc1` (racemic) [epoxiconazole, (2RS,3SR)-1-[3-(2-chlorophenyl)-2,3-epoxy-2-(4-fluorophenyl)propyl]-1H-1,2,4-triazole]?
Answer: inhibition at 0.25 µg/mL ([1]; 0.25 mg/l): 0%; inhibition at 0.063 µg/mL ([2]; 0.063 mg/l): 11%

Question: For `CC1CCN(c2c(-c3c(F)cc(F)cc3F)c(Cl)nc3ncnn23)CC1` [5-chloro-7-(4-methylpiperidin-1-yl)-6-(2,4,6-trifluorophenyl)-[1,2,4]triazolo[1,5-a]pyrimidine], which inhibition at 4 µg/mL [3] is on record?
Answer: Its inhibition at 4 µg/mL is 22%.

Question: How did the inhibition at 1 µg/mL [3] turn out when `Cn1cc(C(=O)Nc2ccccc2-c2ccc(Cl)cc2Cl)c(C(F)F)n1` [No. I.7, N-(2′,4′-dichlorobiphenyl-2-yl)-1-methyl-3-difluoromethyl-1H-pyrazole-4-carboxamide] was run?
Answer: The inhibition at 1 µg/mL was 0%.

Question: What about the inhibition at 0.25 µg/mL ([2]; 0.25 mg/l) of the same compound?
Answer: Its inhibition at 0.25 µg/mL is 11%.

Question: How did the inhibition at 1 µg/mL [3] turn out when `Cn1cc(C(=O)Nc2ccccc2-c2ccc(F)cc2F)c(C(F)F)n1` [No. I.11, N-(2′,4′-difluorobiphenyl-2-yl)-1-methyl-3-difluoromethyl-1H-pyrazole-4-carboxamide] was run?
Answer: Its inhibition at 1 µg/mL is 0%.

Question: What about the inhibition at 1 µg/mL [4] of the same compound?
Answer: Its inhibition at 1 µg/mL is 0%.

Question: What about the inhibition at 4 µg/mL ([5]; 4 mg/l) of the same compound?
Answer: The inhibition at 4 µg/mL was 63%.

Question: For `Cn1nc(C(F)(F)F)c(C(=O)Nc2ccccc2-c2ccc(Cl)cc2Cl)c1F` [No. I.17, N-(2′,4′-dichlorobiphenyl-2-yl)-1-methyl-3-trifluoromethyl-5-fluoro-1H-pyrazole-4-carboxamide], which inhibition at 1 µg/mL [3] is on record?
Answer: The inhibition at 1 µg/mL was 0%.

Question: What about the inhibition at 1 µg/mL ([1]; 1 mg/l) of the same compound?
Answer: Its inhibition at 1 µg/mL is 0%.

Question: And the inhibition at 16 µg/mL ([2]; 16 mg/l)?
Answer: Its inhibition at 16 µg/mL is 22%.

Question: How did the inhibition at 4 µg/mL [3] turn out when `COc1ccc(C(=CC(=O)N2CCOCC2)c2ccc(Cl)cc2)cc1OC` [dimethomorph, 3-(4-chlorophenyl)-3-(3,4-dimethoxyphenyl)-1-morpholin-4-ylpropenone] was run?
Answer: Its inhibition at 4 µg/mL is 0%.

Question: What about the inhibition at 16 µg/mL [5] of the same compound?
Answer: The inhibition at 16 µg/mL was 0%.

Question: Which inhibition at 63 µg/mL ([2]; 63 mg/l) does the source give for `COc1cc(C)c(C(=O)c2c(OC)ccc(Br)c2C)c(OC)c1OC` [metrafenone, 3′-bromo-2,3,4,6′-tetramethoxy-2′,6-dimethylbenzophenone] here?
Answer: Its inhibition at 63 µg/mL is 0%.

Question: What about the inhibition at 16 µg/mL [5] of the same compound?
Answer: Its inhibition at 16 µg/mL is 0%.

Question: `COC(=O)N(OC)c1ccccc1COc1ccn(-c2ccc(Cl)cc2)n1` [pyraclostrobin, methyl N-{2-[1-(4-chlorophenyl)-1H-pyrazol-3-yloxymethyl]phenyl}(N-methoxy)carbamate] was tested. Which inhibition at 1 µg/mL [4] did it give?
Answer: The inhibition at 1 µg/mL was 0%.
